Measurements taken from patent publication US10183021B2, “sGC stimulators” (Ironwood Pharmaceuticals, Inc., priority 2013, dated 2019).

Biological target: soluble guanylate cyclase (sGC) (Homo sapiens (Human), UniProt Q02108+Q02153)
Experiment: sGC-HEK-cGMP assay with SNP incubation, LC/MS detection (Example 2A)
Type: cell-based
Details: HEK293 cells, 10 μM SNP, LC/MS detection; for Emax: 100% = BAY 41-2272 at 10 μM, read-out: HEK assay Emax - unconstrained (%); for EC50: top of curve not fitted to 100%, read-out: HEK assay EC50 - unconstrained
Procedure: Human embryonic kidney cells (HEK293), endogenously expressing soluble guanylate cyclase (sGC), were used to evaluate the activity of test compounds. Compounds stimulating the sGC receptor should cause an increase in the intracellular concentration of cGMP. HEK 293 cells were seeded in Dulbecco's Modification of Eagle's Medium supplemented with fetal bovine serum (10% final) and L-glutamine (2 mM final) in a 200 L volume at a density of 1×10^5 cells/well in a poly-D-lysine coated 96 well flat bottom plate and grown overnight at 37° C. Medium was aspirated and cells were washed with 1× Hank's Buffered Saline Salt Solution (200 μL). Cells were then incubated for 15 minutes at 37° C. with 200 μL of a 0.5 mM 3-isobutyl-1-methylxanthine (IBMX) solution. Test article and sodium nitroprusside solutions (x μM concentration for test article solution and 10 μM concentration for SNP solution; wherein x is one of the following concentrations: 30 μM, 10 μM, 3 μM, 1 μM, 0.3 μM, 0.1 μM, 0.03 μM, 0.01 μM, 0.003 μM, 0.001 μM, 0.0003 μM or 0.0001 μM) were then added to the assay mixture (2 μL each) and the resulting mixture incubated at 37° C. for 10 minutes. After the 10 minute incubation, the assay mixture was aspirated and 0.1M HCl (200 μL) was added to the cells. The plate was incubated at 4° C. for 30 minutes in the 0.1M HCl to stop the reaction and lyse the cells. The plates were then centrifuged at 1,200 g for 5 minutes at room temperature. Supernatants were collected and transferred to a new flat bottom 96 well plate for analysis by HPLC-MS. Vehicle controls were carried out using DMSO (1%) solutions. A known sGC stimulator, BAY 41-2272, was used as the positive control. Samples were diluted with an equal volume of 1 M Ammonium Acetate (pH 7) to neutralize samples for better chromatography. A 2× cGMP standard solution was prepared in 0.1 M HCl and then diluted with an equal volume of 1 M Ammonium Acetate, with the following final concentrations in nM: 1024, 512, 256, 128, 64, 32, 16, 8, 4, 2, 1. cGMP concentrations in the test plates were determined from each sample using the LC/MS conditions shown in Table 2 below and the calculated cGMP standard curve. EC50 values were calculated from concentration-response curves generated with GraphPad Prism Software. Data were normalized to a high control using the following equation: 100*(Sample−Low Control)/(High Control−Low Control), where the low control is the average of 6 samples treated with 1% DMSO, and the high control is the average of 8-12 samples treated with 10 uM BAY 41-2272. Data were fit using a non-linear regression, sigmoidal dose response, 3 parameter fits.

soluble guanylate cyclase (sGC), sequence (Q02153 whole entry): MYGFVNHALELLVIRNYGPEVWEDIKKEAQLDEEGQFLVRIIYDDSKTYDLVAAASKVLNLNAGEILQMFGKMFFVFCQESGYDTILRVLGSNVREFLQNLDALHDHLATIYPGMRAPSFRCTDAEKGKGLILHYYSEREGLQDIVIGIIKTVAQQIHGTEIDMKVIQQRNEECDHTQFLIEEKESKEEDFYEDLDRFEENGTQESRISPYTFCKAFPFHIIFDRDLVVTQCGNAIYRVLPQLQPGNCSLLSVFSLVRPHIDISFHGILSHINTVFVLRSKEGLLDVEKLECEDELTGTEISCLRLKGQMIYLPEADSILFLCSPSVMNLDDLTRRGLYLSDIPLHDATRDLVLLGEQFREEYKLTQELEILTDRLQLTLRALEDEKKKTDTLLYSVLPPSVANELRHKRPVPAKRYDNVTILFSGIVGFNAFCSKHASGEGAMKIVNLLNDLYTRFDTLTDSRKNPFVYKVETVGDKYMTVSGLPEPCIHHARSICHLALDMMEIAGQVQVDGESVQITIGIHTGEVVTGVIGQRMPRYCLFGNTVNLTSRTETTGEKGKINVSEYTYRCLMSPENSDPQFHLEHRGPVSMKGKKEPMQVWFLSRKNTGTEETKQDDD
soluble guanylate cyclase (sGC), sequence (Q02108 whole entry): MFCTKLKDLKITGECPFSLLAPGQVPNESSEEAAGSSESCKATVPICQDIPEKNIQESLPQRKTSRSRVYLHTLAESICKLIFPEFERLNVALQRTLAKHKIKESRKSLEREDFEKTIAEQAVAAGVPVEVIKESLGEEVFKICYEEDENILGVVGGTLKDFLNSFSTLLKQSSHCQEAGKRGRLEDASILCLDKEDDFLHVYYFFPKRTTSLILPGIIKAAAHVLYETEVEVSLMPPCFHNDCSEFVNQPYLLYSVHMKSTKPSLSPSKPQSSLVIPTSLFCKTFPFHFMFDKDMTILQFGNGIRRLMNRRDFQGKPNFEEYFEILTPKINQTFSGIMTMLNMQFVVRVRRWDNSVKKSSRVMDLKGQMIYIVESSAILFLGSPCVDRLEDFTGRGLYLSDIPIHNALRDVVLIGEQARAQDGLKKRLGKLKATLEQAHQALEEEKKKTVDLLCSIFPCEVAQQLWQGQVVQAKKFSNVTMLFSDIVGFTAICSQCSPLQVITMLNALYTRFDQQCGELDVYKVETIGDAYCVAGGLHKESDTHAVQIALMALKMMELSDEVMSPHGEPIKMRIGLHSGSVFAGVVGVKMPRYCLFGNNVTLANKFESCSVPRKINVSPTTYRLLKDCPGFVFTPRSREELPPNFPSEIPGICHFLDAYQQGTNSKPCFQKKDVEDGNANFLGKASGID

Row | Compound | Emax [%] | EC50 [nM]
1 | NC1(C(=O)O)CCN(c2nc(-c3cc(-c4ccon4)n(Cc4ccccc4F)n3)ncc2F)CC1 [Compound I-299] | 40 to 60 | 1000 to 5000
2 | CCOC(=O)c1nnc2n1CCN(c1nc(-c3cc(-c4ccon4)n(Cc4ccccc4F)n3)ncc1F)C2 [Compound I-115] | 40 to 60 | 1 to 100
3 | O=C(NS(=O)(=O)C1CC1)C1CCCCN1c1nc(-c2cc(-c3ccon3)n(Cc3ccccc3F)n2)ncc1F (centres unmarked) [Compound I-144] | 80 to 100 | 500 to 1000
4 | Fc1ccccc1Cn1nc(-c2ncc(F)c(N3CC4(COC4)C3)n2)cc1-c1ccon1 [Compound I-32] | 60 to 80 | 100 to 500
5 | CS(=O)(=O)C1CCN(c2nc(-c3cc(-c4ccon4)n(Cc4ccccc4F)n3)ncc2F)CC1 [Compound I-175] | 100 to 120 | 1 to 100
6 | O=C(O)CCC1CCN(c2nc(-c3cc(-c4ccon4)n(Cc4ccccc4F)n3)ncc2F)CC1 [Compound I-234] | 80 to 100 | 100 to 500
7 | CCNC(=O)NC1CCCN(c2nc(-c3cc(-c4ccon4)n(Cc4ccccc4F)n3)ncc2F)C1 (centres unmarked) [Compound I-70] | 80 to 100 | 100 to 500
8 | CC(C)(C)OC(=O)N1CCN(c2nc(-c3cc(-c4ccon4)n(Cc4ccccc4F)n3)ncc2F)C(CO)C1 (centres unmarked) [Compound I-184] | 80 to 100 | 500 to 1000
9 | Fc1ccccc1Cn1nc(-c2ncc(Cl)c(N3CCOCC3)n2)cc1-c1ccon1 [Compound I-28] | 60 to 80 | 1000 to 5000
10 | Fc1ccccc1Cn1nc(-c2ncc(F)c(N3CC(F)(F)C3)n2)cc1-c1ccon1 [Compound I-61] | 80 to 100 | 500 to 1000
11 | NC1CCN(c2nc(-c3cc(-c4ccon4)n(Cc4ccccc4F)n3)ncc2F)C1 (centres unmarked) [Compound I-46] | 60 to 80 | 1000 to 5000
12 | CCNC(=O)NC1CN(c2nc(-c3cc(-c4ccon4)n(Cc4ccccc4F)n3)ncc2F)C1 [Compound I-71] | 60 to 80 | 100 to 500
13 | CCC(C)(C)C1(C(=O)O)CCN(c2nc(-c3cc(-c4ccon4)n(Cc4ccccc4F)n3)ncc2F)CC1 [Compound I-256] | 80 to 100 | 100 to 500
14 | O=C(O)[C@@H](Nc1nc(-c2cc(-c3ccon3)n(Cc3ccccc3F)n2)ncc1F)C1CC1 [Compound I-227] | 20 to 40 | 100 to 500

Results, then the compound that gave them:

Row | Emax [%] | EC50 [nM] | Compound
15 | 80 to 100 | 100 to 500 | O=c1ccc(CNc2nc(-c3cc(-c4ccon4)n(Cc4ccccc4F)n3)ncc2F)c[nH]1 [Compound I-278]
16 | 40 to 60 | 1000 to 5000 | CONC(=O)CN(C)c1nc(-c2cc(-c3ccon3)n(Cc3ccccc3F)n2)ncc1F [Compound I-218]
17 | 60 to 80 | 1 to 100 | O=C(O)C1c2ccccc2CCN1c1nc(-c2cc(-c3ccon3)n(Cc3ccccc3F)n2)ncc1F (centres unmarked) [Compound I-97]
18 | 60 to 80 | 500 to 1000 | O=C(O)C1CCN(c2nc(-c3cc(-c4ccon4)n(Cc4ccccc4F)n3)ncc2F)C1 (centres unmarked) [Compound I-76]
19 | 80 to 100 | 1000 to 5000 | COCCC(Nc1nc(-c2cc(-c3ccon3)n(Cc3ccccc3F)n2)ncc1F)C(=O)O (centres unmarked) [Compound I-232]
20 | 60 to 80 | 500 to 1000 | O=C(O)CCNc1nc(-c2cc(-c3ccon3)n(Cc3ccccc3F)n2)ncc1F [Compound I-174]
21 | 80 to 100 | 100 to 500 | CN(Cc1ccccc1C(=O)O)c1nc(-c2cc(-c3ccon3)n(Cc3ccccc3F)n2)ncc1F [Compound I-279]
22 | 60 to 80 | 100 to 500 | CC(C)(C)[C@H](CC(=O)O)Nc1nc(-c2cc(-c3ccon3)n(Cc3ccccc3F)n2)ncc1F [Compound I-251]
23 | 80 to 100 | 1 to 100 | O=C(O)c1ccccc1C1CCN(c2nc(-c3cc(-c4ccon4)n(Cc4ccccc4F)n3)ncc2F)CC1 [Compound I-254]
24 | 60 to 80 | 100 to 500 | O=C(O)CN(Cc1ccccc1)c1nc(-c2cc(-c3ccon3)n(Cc3ccccc3F)n2)ncc1F [Compound I-168]
25 | 80 to 100 | 100 to 500 | CS(=O)(=O)c1ccc(CNc2nc(-c3cc(-c4ccon4)n(Cc4ccccc4F)n3)ncc2F)cc1 [Compound I-287]
